Test results as given in patent publication US20080306047A1, “Use of Aza-Phenylalanine Compounds For Treating Cardiac Arrhythmia” (priority 2005, published 2008).

Columns and labels:
[1] = test system: isolated rat hearts; test: Reperfusion-induced arrhythmia in isolated rat hearts (Langendorff) subjected to 40-min global ischemia; parameters: species or system Wistar rats; settings: 40-min ischemia, 50 min reperfusion, drug 1 μM in K-H solution, mean ± SEM
Method: Wistar rats (230-330 g) are anaesthetized by intraperitoneal injection of urethane (0.7 ml 20% w/v solution/100 g body weight), followed by intraperitoneal injection of heparin (2500 IU/rat). Having opened the thorax a cannula filled with cold Krebs-Henseleit (K-H) solution is inserted into the ascending aorta. After that the heart is excised, it is connected to Langendorff's apparatus and perfused with K-H solution (K-H solution, in mM: 118.6 NaCl; 4.7 KCl; 11.1 glucose; 25 NaHCO3; 1.66 MgSO4; 1.2 NaH2PO4, 2.52 […]; pH=7.4) under constant pressure (60 cm H2O). Prior to use, the K-H perfusion solution is passed through a cellulose acetate filter (pore size 5 μm) to remove any particulate impurities. The perfusion solution is kept at 38.5° C. and gassed with 95% O2 and 5% CO2. Two silver (AgCl) electrodes are set on the surface of the heart in the direction of electrical axis of the heart for recording electrocardiogram. Electrodes are placed on the heart in such a position that a sufficient amplitude of P wave and QRS complex is obtained. The following experimental groups are studied: 1) isolated hearts are perfused with oxygenated K-H solution for 30 min followed by 40 min of global ischemia and followed by 50 min of reperfusion with oxygenated K-H solution; 2) isolated hearts are perfused with oxygenated K-H solution for 20 min, followed by 10 min perfusion with experimental drug dissolved in K-H and then the hearts are exposed to 40 min of global ischemia followed by 50 min reperfusion with experimental drug dissolved in K-H. The used experimental drugs are compounds of formulae IV, V and VI as defined above. As a positive control direct thrombin inhibitor argatroban and low molecular weight heparin nadroparin are used. The hearts are monitored for the duration of proarrhythmic events according to the Lambeth convention (Walker et al., Cardiovascular Res 1988; 22: 447-455). Lactate dehydrogenase (LDH) release rate is determined spectophotometrically (Wroblevski & LaDue, Proc Exp Biol Med 1955; 90: 210-213) in the coronary effluent and is expressed in μkat per minute and per weight of the heart (Grasic Kuhar et al. Eur J Pharmacol 2004; 488: 137-46).

[2] = test system: isolated rat hearts; test: Reperfusion-induced arrhythmia in isolated rat hearts (Langendorff), 25-min global no-flow ischemia, 30 min reperfusion; parameters: species or system Wistar rats; settings: 1 μM and 10 μM (+DMSO 500 μL/L), n=12
Method: Hearts from male Wistar rats (300-370 g) anesthetized with diethyl-ether inhalation were perfused with Krebs-Henseleit buffer at 37° C. gassed with carbogen in Langendorff mode as described (Onody A et al., Cardiovasc Res. 2003, 58: 663-670). After an initial 15 min aerobic, normothermic perfusion period, hearts are subjected to 25-min of global, no-flow, normothermic ischemia, followed by 30 min normoxic, normothermic reperfusion. Measured parameters were heart rate and incidence of reperfusion-induced ventricular fibrillation (VF) and ventricular tachycardia (VT). Epicardial electrocardiogram was recorded throughout the experimental protocol to determine heart rate, VF and VT according to the Lambeth conventions (Walker et al., Cardiovasc Res. 1988; 22: 447-455) as described (Csonka et al., 2003; J Cardiovasc Pharmacol 41: 916-922; Ferdinandy et al., Cardiovasc Res. 1995; 58: 663-670.). Recording and evaluation of the ECG was performed using the SPEL Advanced Isosys system (Experimetria Ltd, Budapest, Hungary). Experimental groups were designed as follows: control, solvent (DMSO 500 μL/L), compound of formula IV at 1 μM (+DMSO 500 μL/L), compound of formula IV at 10 μM (+DMSO 500 μL/L), positive control: nifedipine at 0.5 μM (+DMSO 500 μL/L). Animals were randomly assigned to the different groups, however, perfusions were done in 4 parallel experiments within a group (n=12 in each group). The perfusion medium contained the drugs throughout the entire perfusion protocol in the treated groups. HR was compared to the solvent-treated group using ANOVA followed by Dunn's test. The incidence of VF and VT were compared with Chi^2 test in all groups, than each group was compared to the solvent-treated group using the Fischer's exact test.
Compound of formula IV was tested at 10 μM (Compound of formula IV, 10 μM) and 1 μM (Compound of formula IV, 1 μM), nifedipine was tested at 0.5 μM. Chi^2 test followed by the Fischer's exact test. * p<0.05; ** p<0.01; ## p<0.01 (all groups compared to DMSO group)

SMILES	Duration VF (ventricular fibrillation) [1] [s]	Duration VT (ventricular tachycardia) [1] [s]	Duration of all proarrhythmic events (VT, VF, extrasystolia and asystolia) [1] [s]	incidence of reperfusion-induced ventricular fibrillation (VF) ([2]; compared to DMSO group)	incidence of reperfusion-induced ventricular tachycardia (VT) ([2]; compared to DMSO group)	heart rate (HR) ([2]; compared to solvent-treated group)
CC1CNc2c(cccc2S(=O)(=O)N[C@@H](CCCNC(=N)N)C(=O)N2CC[C@@H](C)C[C@@H]2C(=O)O)C1 (stereo partly drawn) [Argatroban, argatroban, reference compound]	583.6 ± 228.6	828.7 ± 233.7	1731.0 ± 445.0	–	–	–
N=C(N)c1cccc(CN(NS(=O)(=O)c2ccc3ccccc3c2)C(=O)N2CCCCCC2)c1 [Compound IV]	78.6 ± 42.6	87.2 ± 53.3	353.3 ± 148.1	concentration-dependently decreased	not significantly changed	not significantly changed
N=C(N)c1cccc(CN(NS(=O)(=O)Cc2ccccc2F)C(=O)N2CCCCCC2)c1 [Compound VI]	596.0 ± 469.4	99.5 ± 77.95	810.2 ± 461.4	–	–	–
N/C(=N\O)c1cccc(CN(NS(=O)(=O)c2ccc3ccccc3c2)C(=O)N2CCCCCC2)c1 [Compound V]	149.3 ± 86.4	60.0 ± 30.8	278.3 ± 104.2	–	–	–
